Assay results taken from US11035858B2, “Methods of isolating barrel-like proteases and identifying peptides processed thereby” (Yeda Research and Development Co. Ltd., priority 2016, dated 2021).
Residues, ends and D or L forms follow the SMILES beside them. *: point of attachment. Cbz = O=C(OCc1ccccc1)*

Molecular target: T1, Purified proteasomes (Homo sapiens, UniProt P28074)
T1 construct: using this protocol active proteasomes are efficiently isolated from cells; endogenous in cells; immunoprecipitated with anti-α6 antibodies
Experiment: Proteasome activity-based assay with fluorogenic Suc-LLVY-Amc substrate
Format: biochemical
Settings: fluorescent LLVY peptide substrate; FIG. 2
Experimental: Proteasome Activity-Based Assay.
Purified proteasomes were incubated with the fluorogenic substrate peptide Suc-LLVY-Amc (100 μM) in a reaction mixture containing 50 mM Hepes, pH 7.5, 1 mM DTT, 5 mM MgCl2, and 2 mM ATP. fluorescence of cleaved Amc was measured (excitation, 360 nm; emission, 470 nm).
A unique system of ‘Proteasomal Profiling’ was developed for the isolation of the active-degradome from the cell by purifying the proteasomal peptide pool, which represents proteins actively undergoing degradation at the time of experiment (FIG. 1). Proteasomal complexes were purified by immunoprecipitation using specific antibodies against the α6 subunit of the 20S core particle. To examine whether the catalytic activity of the proteasomes is retained during the purification procedures, an activity-based assay was performed using a fluorescent LLVY peptide substrate.

CC(C)C[C@@H](C=O)NC(=O)[C@H](CC(C)C)NC(=O)[C@H](CC(C)C)NC(=O)OCc1ccccc1 [MG132] (Cbz-Leu-Leu-Leu-aldehyde)
degradation of the LLVY substrate by purified proteasomes: sensitive
